Measured values from patent US20230091848A1, “DISEASE DETECTION AND TREATMENT BASED ON PHENYLACETYL GLUTAMINE LEVELS” (The Cleveland Clinic Foundation, priority 2020, published 2023).

Columns and labels:
[1] = test system: human platelet rich plasma (PRP); assay: Platelet aggregometry in platelet rich plasma; assay type: cell-based; conditions: submaximal ADP
Protocol: ADP (up to 4 μM), TRAP6 (up to 10 μM) and collagen (up to 1.0 μg/mL) were used as indicated to initiate aggregation with constant stirring (600 rpm).

washed human platelets = assay: Intracellular Ca2+ in Fura 2 loaded washed platelets; assay type: cell-based; conditions: sub-maximal (0.02 U) thrombin
Protocol: To prepare washed platelets for intracellular Ca^2+ measurements, 100 nM prostaglandin E1 (PGE-1) was added to PRP and the PRP was then centrifuged at 500×g for 20 min at 22° C. […] For ratiometric fluorescence measurements, washed platelets were incubated with Fura 2-AM (1 μM) at 22° C. for 30 min. Excess Fura 2-AM was removed by centrifugation at 500×g for 30 min.

[2] = test system: FeCl3-induced carotid artery injury model; assay: Carotid artery FeCl3 injury thrombosis assay; assay type: in vivo, mice; conditions: i.p. injection 50 mg/kg; vs phenylalanine or saline
Protocol: Briefly, rhodamine 6G (100 μL; 0.5 mg/mL) was injected directly into the right jugular vein to label platelets. The left carotid artery was exposed and injured by placing a FeCl3-soaked filter paper for 1 minute. […] Time to cessation of blood flow through clot formation for all studies was determined by visual inspection by two different investigators. End points were set as cessation of blood flow for 30 seconds to 30 minutes.

O=C(O)CNC(=O)Cc1ccccc1 [PAGly, phenylacetylglycine]
ADP-stimulated platelet aggregation response [1]: augmented stimulus (ADP) dependent platelet aggregation response
thrombin-evoked augmentation of [Ca2+]i (washed human platelets): provoked further rise in [Ca^2+]i in response to sub-maximal thrombin exposure
platelet thrombus formation within the injured carotid artery [2]: induced heightened platelet thrombus formation within the injured carotid artery
time to cessation of flow (occlusion time) [2]: reduced the time to cessation of flow following injury
